Tested on: 422866-222-R5-J1-PDC complex spheroid viability
Assay: Anticancer human tumor 422866-222-R5-J1-PDC patient-derived pancreatic adenocarcinoma cell line growth inhibition [POLQ]
Details: for IC50: curve of first compound; for viability, T/C: stronger effect = lower value
How it was run: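 PDC + HUVEC + MSC complex spheroids; POLQ inhibitors ± partner drugs; top conc. at/near clinical Cmax, else 10 microM (SN-38 1 microM), half-log dilutions; 37 degrees C, 5% CO2.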

[1] = second compound 0.0316 µM, first compound 0.0316 µM
[2] = second compound 0.0316 µM, first compound 0.1 µM
[3] = second compound 0.0316 µM, first compound 0.316 µM
[4] = second compound 0.0316 µM, first compound 1 µM
[5] = second compound 0.0316 µM, first compound 3.16 µM
[6] = second compound 0.0316 µM, first compound 10 µM
[7] = second compound 0.1 µM, first compound 0.0316 µM
[8] = second compound 0.1 µM, first compound 0.1 µM
[9] = second compound 0.1 µM, first compound 0.316 µM
[10] = second compound 0.1 µM, first compound 1 µM
[11] = second compound 0.1 µM, first compound 3.16 µM
[12] = second compound 0.1 µM, first compound 10 µM
[13] = second compound 0.316 µM, first compound 0.0316 µM
[14] = second compound 0.316 µM, first compound 0.1 µM
[15] = second compound 0.316 µM, first compound 0.316 µM
[16] = second compound 0.316 µM, first compound 1 µM
[17] = second compound 0.316 µM, first compound 3.16 µM
[18] = second compound 0.316 µM, first compound 10 µM
[19] = second compound 1 µM, first compound 0.0316 µM
[20] = second compound 1 µM, first compound 0.1 µM
[21] = second compound 1 µM, first compound 0.316 µM
[22] = second compound 1 µM, first compound 1 µM
[23] = second compound 1 µM, first compound 3.16 µM
[24] = second compound 1 µM, first compound 10 µM
[25] = second compound 3.16 µM, first compound 0.0316 µM
[26] = second compound 3.16 µM, first compound 0.1 µM
[27] = second compound 3.16 µM, first compound 0.316 µM
[28] = second compound 3.16 µM, first compound 1 µM
[29] = second compound 3.16 µM, first compound 3.16 µM
[30] = second compound 3.16 µM, first compound 10 µM
[31] = second compound 10 µM, first compound 0.0316 µM
[32] = second compound 10 µM, first compound 0.1 µM
[33] = second compound 10 µM, first compound 0.316 µM
[34] = second compound 10 µM, first compound 1 µM
[35] = second compound 10 µM, first compound 3.16 µM
[36] = second compound 10 µM, first compound 10 µM
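Further: spheroids exposed to compounds for one week before readout.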
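Wherever viability, T/C is given: percent of DMSO vehicle wells luminescence so 100% = untreated viability.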

**Q.** What does the source list for `Nc1ccn(C2OC(CO)C(O)C2(F)F)c(=O)n1` (stereo unspecified) + Nc1ccc(C#CCN(C(=O)Cc2ncc(C(F)(F)F)cc2C(F)(F)F)c2ccc(F)cc2)nn1?
**A.** IC50 (second compound 0.0316 µM): < 0.0316 µM; IC50 (second compound 0.1 µM): 0.0552 µM; IC50 (second compound 0.316 µM): 0.0726 µM; IC50 (second compound 1 µM): 0.0715 µM; IC50 (second compound 3.16 µM): 0.118 µM; IC50 (second compound 10 µM): 0.539 µM; viability, T/C [1]: 57.9%; viability, T/C [2]: 42.5%; viability, T/C [3]: 28.7%; viability, T/C [4]: 38.4%; viability, T/C [5]: 36.9%; viability, T/C [6]: 39.2%; viability, T/C [7]: 62.2%; viability, T/C [8]: 37.7%; viability, T/C [9]: 30.6%; viability, T/C [10]: 32.4%; viability, T/C [11]: 38.1%; viability, T/C [12]: 36.4%; viability, T/C [13]: 66.8%; viability, T/C [14]: 43.5%; viability, T/C [15]: 30.4%; viability, T/C [16]: 40.1%; viability, T/C [17]: 33.2%; viability, T/C [18]: 34.4%; viability, T/C [19]: 75%; viability, T/C [20]: 39.8%; viability, T/C [21]: 36.8%; viability, T/C [22]: 34.3%; viability, T/C [23]: 36.1%; viability, T/C [24]: 49%; viability, T/C [25]: 72.8%; viability, T/C [26]: 52.5%; viability, T/C [27]: 35.3%; viability, T/C [28]: 31.8%; viability, T/C [29]: 34.1%; viability, T/C [30]: 41%; viability, T/C [31]: 98.8%; viability, T/C [32]: 67.9%; viability, T/C [33]: 68.8%; viability, T/C [34]: 34.8%; viability, T/C [35]: 31.7%; viability, T/C [36]: 30.6%

**Q.** How did the IC50 (second compound 0.0316 µM) turn out when `O=C(c1cc(Cc2n[nH]c(=O)c3ccccc23)ccc1F)N1CCN(C(=O)C2CC2)CC1` + Nc1ccc(C#CCN(C(=O)Cc2ncc(C(F)(F)F)cc2C(F)(F)F)c2ccc(F)cc2)nn1 was run?
**A.** > 10 µM

**Q.** And the IC50 (second compound 0.1 µM)?
**A.** > 10 µM

**Q.** What about the IC50 (second compound 0.316 µM) of the same compound?
**A.** > 10 µM

**Q.** What about the IC50 (second compound 1 µM) of the same compound?
**A.** > 10 µM

**Q.** What about the IC50 (second compound 3.16 µM) of the same compound?
**A.** > 10 µM

**Q.** And the IC50 (second compound 10 µM)?
**A.** > 10 µM

**Q.** And the viability, T/C [1]?
**A.** 86.6%

**Q.** And the viability, T/C [2]?
**A.** 109%

**Q.** And the viability, T/C [3]?
**A.** 88.2%

**Q.** And the viability, T/C [4]?
**A.** 97.9%

**Q.** And the viability, T/C [5]?
**A.** 72.8%

**Q.** And the viability, T/C [6]?
**A.** 73.6%

**Q.** And the viability, T/C [7]?
**A.** 91.7%

**Q.** What about the viability, T/C [8] of the same compound?
**A.** 95.8%

**Q.** And the viability, T/C [9]?
**A.** 97.5%

**Q.** And the viability, T/C [10]?
**A.** 93.8%

**Q.** What about the viability, T/C [11] of the same compound?
**A.** 80.2%

**Q.** And the viability, T/C [12]?
**A.** 61.4%

**Q.** What about the viability, T/C [13] of the same compound?
**A.** 101%

**Q.** What about the viability, T/C [14] of the same compound?
**A.** 103%

**Q.** What about the viability, T/C [15] of the same compound?
**A.** 99.1%

**Q.** What about the viability, T/C [16] of the same compound?
**A.** 102%

**Q.** What about the viability, T/C [17] of the same compound?
**A.** 76.2%

**Q.** What about the viability, T/C [18] of the same compound?
**A.** 65.8%

**Q.** What about the viability, T/C [19] of the same compound?
**A.** 105%

**Q.** What about the viability, T/C [20] of the same compound?
**A.** 90.1%

**Q.** And the viability, T/C [21]?
**A.** 105%

**Q.** What about the viability, T/C [22] of the same compound?
**A.** 84.5%

**Q.** What about the viability, T/C [23] of the same compound?
**A.** 70.2%

**Q.** And the viability, T/C [24]?
**A.** 53.7%

**Q.** What about the viability, T/C [25] of the same compound?
**A.** 112%

**Q.** And the viability, T/C [26]?
**A.** 109%

**Q.** What about the viability, T/C [27] of the same compound?
**A.** 111%

**Q.** What about the viability, T/C [28] of the same compound?
**A.** 90.3%

**Q.** And the viability, T/C [29]?
**A.** 84.2%

**Q.** And the viability, T/C [30]?
**A.** 65.9%

**Q.** What about the viability, T/C [31] of the same compound?
**A.** 96.8%

**Q.** What about the viability, T/C [32] of the same compound?
**A.** 104%

**Q.** And the viability, T/C [33]?
**A.** 131%

**Q.** What about the viability, T/C [34] of the same compound?
**A.** 115%

**Q.** And the viability, T/C [35]?
**A.** 91.9%

**Q.** What about the viability, T/C [36] of the same compound?
**A.** 68.6%

**Q.** With `O=c1[nH]cc(F)c(=O)[nH]1` + Nc1ccc(C#CCN(C(=O)Cc2ncc(C(F)(F)F)cc2C(F)(F)F)c2ccc(F)cc2)nn1 as the compound, how does the IC50 (second compound 0.0316 µM) read?
**A.** > 10 µM

**Q.** What about the IC50 (second compound 0.1 µM) of the same compound?
**A.** > 10 µM

**Q.** What about the IC50 (second compound 0.316 µM) of the same compound?
**A.** > 10 µM

**Q.** And the IC50 (second compound 1 µM)?
**A.** > 10 µM

**Q.** What about the IC50 (second compound 3.16 µM) of the same compound?
**A.** > 10 µM

**Q.** And the IC50 (second compound 10 µM)?
**A.** > 10 µM

**Q.** What about the viability, T/C [1] of the same compound?
**A.** 108%

**Q.** What about the viability, T/C [2] of the same compound?
**A.** 102%

**Q.** And the viability, T/C [3]?
**A.** 89.4%

**Q.** And the viability, T/C [4]?
**A.** 88.2%

**Q.** And the viability, T/C [5]?
**A.** 89.1%

**Q.** And the viability, T/C [6]?
**A.** 79.3%

**Q.** And the viability, T/C [7]?
**A.** 113%

**Q.** And the viability, T/C [8]?
**A.** 90.9%

**Q.** What about the viability, T/C [9] of the same compound?
**A.** 92.4%

**Q.** What about the viability, T/C [10] of the same compound?
**A.** 96.2%

**Q.** And the viability, T/C [11]?
**A.** 83.2%

**Q.** And the viability, T/C [12]?
**A.** 76.7%

**Q.** And the viability, T/C [13]?
**A.** 99.2%

**Q.** And the viability, T/C [14]?
**A.** 106%

**Q.** What about the viability, T/C [15] of the same compound?
**A.** 100%

**Q.** And the viability, T/C [16]?
**A.** 93.4%

**Q.** What about the viability, T/C [17] of the same compound?
**A.** 75.9%

**Q.** And the viability, T/C [18]?
**A.** 84.7%

**Q.** What about the viability, T/C [19] of the same compound?
**A.** 101%

**Q.** What about the viability, T/C [20] of the same compound?
**A.** 111%

**Q.** What about the viability, T/C [21] of the same compound?
**A.** 108%

**Q.** And the viability, T/C [22]?
**A.** 92.4%

**Q.** And the viability, T/C [23]?
**A.** 90.1%

**Q.** And the viability, T/C [24]?
**A.** 83.4%

**Q.** And the viability, T/C [25]?
**A.** 95%

**Q.** What about the viability, T/C [26] of the same compound?
**A.** 132%

**Q.** And the viability, T/C [27]?
**A.** 102%

**Q.** And the viability, T/C [28]?
**A.** 104%

**Q.** And the viability, T/C [29]?
**A.** 88.3%

**Q.** And the viability, T/C [30]?
**A.** 82.6%

**Q.** And the viability, T/C [31]?
**A.** 101%

**Q.** And the viability, T/C [32]?
**A.** 118%

**Q.** What about the viability, T/C [33] of the same compound?
**A.** 97.1%

**Q.** And the viability, T/C [34]?
**A.** 100%

**Q.** And the viability, T/C [35]?
**A.** 78.3%

**Q.** And the viability, T/C [36]?
**A.** 83.8%

— PubChem BioAssay AID1963844 (Molecular Pharmacology Branch, DTP, NCI, 2024)
